Results from publication PMC11684895 (Briefings in Bioinformatics, 2024).

What was measured:
DNA gyrase subunit GyrA = DNA gyrase subunit GyrA (Mycobacterium tuberculosis, UniProt P9WG47); assay: SPR; type: binding
DNA gyrase subunit GyrB = DNA gyrase subunit GyrB (Mycobacterium tuberculosis, UniProt P9WG45); assay: SPR; type: binding
Sequence of DNA gyrase subunit GyrB (P9WG45 whole entry): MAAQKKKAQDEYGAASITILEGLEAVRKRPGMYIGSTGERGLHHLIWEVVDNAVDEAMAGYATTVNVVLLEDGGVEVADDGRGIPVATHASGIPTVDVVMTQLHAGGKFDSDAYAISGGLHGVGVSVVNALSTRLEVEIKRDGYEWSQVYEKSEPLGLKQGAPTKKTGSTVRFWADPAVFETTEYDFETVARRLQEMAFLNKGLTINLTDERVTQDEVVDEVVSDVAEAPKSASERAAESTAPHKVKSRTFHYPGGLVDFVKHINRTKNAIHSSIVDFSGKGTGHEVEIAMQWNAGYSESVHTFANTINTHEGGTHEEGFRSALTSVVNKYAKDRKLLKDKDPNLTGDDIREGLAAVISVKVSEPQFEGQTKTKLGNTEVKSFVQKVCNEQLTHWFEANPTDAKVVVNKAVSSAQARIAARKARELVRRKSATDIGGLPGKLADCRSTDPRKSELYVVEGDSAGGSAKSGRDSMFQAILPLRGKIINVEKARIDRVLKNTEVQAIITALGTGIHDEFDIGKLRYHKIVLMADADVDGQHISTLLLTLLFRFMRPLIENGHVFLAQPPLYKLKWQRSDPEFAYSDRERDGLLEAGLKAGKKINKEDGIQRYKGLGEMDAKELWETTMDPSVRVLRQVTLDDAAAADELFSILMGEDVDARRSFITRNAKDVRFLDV

Sequence of DNA gyrase subunit GyrA (P9WG47 2-838): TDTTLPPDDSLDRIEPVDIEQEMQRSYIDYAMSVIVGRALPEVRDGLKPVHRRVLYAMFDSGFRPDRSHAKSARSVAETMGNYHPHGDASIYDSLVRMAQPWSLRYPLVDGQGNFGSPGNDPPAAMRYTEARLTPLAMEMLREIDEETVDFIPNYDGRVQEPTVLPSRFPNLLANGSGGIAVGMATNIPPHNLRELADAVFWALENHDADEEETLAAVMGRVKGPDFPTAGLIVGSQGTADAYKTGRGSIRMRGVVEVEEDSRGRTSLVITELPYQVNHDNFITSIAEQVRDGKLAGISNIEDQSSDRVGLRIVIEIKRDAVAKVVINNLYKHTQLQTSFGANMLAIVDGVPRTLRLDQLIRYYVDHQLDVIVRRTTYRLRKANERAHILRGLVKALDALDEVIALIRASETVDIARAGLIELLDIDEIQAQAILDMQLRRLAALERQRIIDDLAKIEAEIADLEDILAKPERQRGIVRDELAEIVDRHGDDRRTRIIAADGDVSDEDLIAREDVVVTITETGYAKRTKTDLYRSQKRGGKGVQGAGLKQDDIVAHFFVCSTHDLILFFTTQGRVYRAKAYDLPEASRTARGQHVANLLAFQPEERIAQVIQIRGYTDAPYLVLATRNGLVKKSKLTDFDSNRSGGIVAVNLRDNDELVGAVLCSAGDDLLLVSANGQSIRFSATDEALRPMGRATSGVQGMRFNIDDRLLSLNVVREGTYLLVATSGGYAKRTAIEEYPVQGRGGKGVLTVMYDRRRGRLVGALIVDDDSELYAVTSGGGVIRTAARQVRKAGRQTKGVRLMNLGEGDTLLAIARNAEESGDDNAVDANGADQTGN

| SMILES | Kd (DNA gyrase subunit GyrA) | Kd (DNA gyrase subunit GyrB) |
| --- | --- | --- |
| COc1cccc2c1C(=O)c1c(O)c3c(c(O)c1C2=O)C[C@@](O)(/C(CO)=N/NC(=O)CCCCCN1C(=O)C=CC1=O)C[C@@H]3O[C@H]1C[C@H](N)[C@H](O)[C@H](C)O1 [aldoxorubicin] | 400 nM | 324 nM |
| CN1CCC[C@H]1CCNC(=O)c1cn2c3c(c(N4CCC(c5cnccn5)C4)c(F)cc3c1=O)Oc1cc3ccccc3cc1-2 (stereo partly shown) [quarfloxin] | 2890 nM | 30100 nM |
